Earlier results in patent US20250002523A1, “RUBUSOSIDE GLUCOSIDES” (SYMRISE AG, priority 2021, published 2025).

Conditions: reported in the background section

C=C1C[C@@]23CC[C@H]4[C@@](C)(CCC[C@@]4(C)C(=O)O[C@@H]4O[C@H](CO)[C@@H](O)[C@H](O)[C@H]4O)[C@@H]2CC[C@]1(O[C@@H]1O[C@H](CO)[C@@H](O)[C@H](O)[C@H]1O)C3 [Rubusoside]
sweet taste impression relative to sucrose: 200 times as strong as sucrose
